Assay results taken from US20110245283A1, “Methods for predicting the response to statins” (priority 2009, published 2011).
Where two headings read alike, the source gives them in different places.

What was measured:
LDL [1] = test: Logistic regression models of attaining LDL goal: odds ratios for concurrent or prior drug doses; format: in vivo, patients
Method: G. Covariates for the multivariate model—The following list includes the predictors one or more of which may be tested in the multivariate models. • 1. AGE: (expressed in units of 10 years) at time that the new statin prescription was released • 2. GENDER, E. G., MALE: 1=yes, 0=no • 3. BMI (kg/M^2): last value before release date • 4. HBA1C (hemoglobin Alc): last value before release date • 5. PLDL: preceding LDL level expressed in e.g. 10 mg/dl units • 6. Statins • a. PLOVA: prior daily dose of lovastatin expressed in e.g. 10 mg units • b. […] For additional drugs: • a. AMIODOSE: amiodarone dose in mg/day • b. CARBDOSE: carbemazepine dose in mg/day • c. PIOGDOSE: pioglitazone dose expressed as number of 15 mg doses per day • d. […] METFDOSE: metformin dose expressed as number of 1000 mg doses per day • f. PHENDOSE: phenyloin dose in mg/day • g. RISPDOSE: risperidone dose in mg/day • h. ROSIDOSE: rosiglitazone dose in mg/day • i.
Body mass index (BMI) was chosen as a covariate of statin response because obese patients tend to consume a diet high in cholesterol. It was hypothesized that they would respond less well to statins because their hypercholesterolemia was more likely to be mediated by dietary indiscretion than excessive LDL synthesis. […] Metformin and the thiazolidinediones were chosen because they reduce LDL levels in diabetic patients through mechanisms that may or may not be affected by concurrent statin treatment. The remaining non-statin drugs were chosen because they are commonly used drugs that potentiate the effect of statins. They were selected by reviewing the official on-line VA pharmaceutical reference (Micromedex®) for major interactions mediated by impaired statin metabolism. […] The daily dose of the non-statin drug was calculated by the method described in Section B.
H. Assembling the predictor file—The patient identifier was used to link the new statin prescription type and dose, the preceding LDL above goal, and the type and dose of the previous statin (if any) with the patient's most recent HbA1c, most recent BMI, and the daily doses of 9 drugs with major statin interactions that were active at the time the new prescription was released.
The dependent variable was attainment of goal (LDL <100 mg/dl). […] Step selections were based upon the maximal likelihood method with α<0.15 to enter and ≧0.15 to remove.

LDL [2] = details: second study named in the background; any dose adjustment or change; cited from earlier work
LDL [3] = details: cited from earlier work
LDL [4] = test: Proportion of CAD patients attaining LDL goal (<100 mg/dl) on a statin dose; validation sets stratified by predicted probability; details: for Proportion of patients achieving goal: validation set

## CC[C@H](C)C(=O)O[C@H]1C[C@@H](C)C=C2C=C[C@H](C)[C@H](CC[C@@H]3C[C@@H](O)CC(=O)O3)[C@H]21 [Lovastatin, lovastatin]
LDL [1]; odds of goal LDL <100 mg/dl, Lovastatin 20 mg [A] model (includes HbA1c; n = 595), per dose increment
  OR: 0.768
LDL [1]; odds of goal, Lovastatin 20 mg [B] model (excludes HbA1c; n = 733), per dose increment
  OR: 0.542
LDL [1]; odds of goal, Lovastatin 40 mg model (n = 764), per dose increment
  OR: 0.768
LDL [1]; odds of goal, Lovastatin 80 model (n = 309), per dose increment
  OR: 0.868
LDL [1]; odds of goal, Model 1, Lovastatin 20 mg, per 10 mg/day
  OR: 0.593
LDL [1]; odds of goal, Model 1, Lovastatin 40 mg, per 10 mg/day
  OR: 0.770
LDL [1]; odds of goal, Model 1, Lovastatin 80 mg, per 10 mg/day
  OR: 0.868
LDL [1]; odds of goal, Model 1, Simvastatin 10 mg, per 10 mg/day
  OR: 0.434
LDL [1]; odds of goal, Model 1, Simvastatin 20 mg, per 10 mg/day
  OR: 0.615
LDL [1]; odds of goal, Model 1, Simvastatin 40 mg, per 10 mg/day
  OR: 0.928
LDL [1]; odds of goal, Model 1, Simvastatin 80 mg, per 10 mg/day
  OR: 1.04
LDL [1]; odds of goal, Simvastatin 10 mg [B] model (includes BMI; n = 136), per dose increment
  OR: 0.341
LDL [1]; odds of goal, Simvastatin 10 mg [C] model (excludes BMI; n = 219), per dose increment
  OR: 0.382
LDL [1]; odds of goal, Simvastatin 20 mg model (n = 374), per dose increment
  OR: 0.617
LDL [1]; odds of goal, Simvastatin 40 mg model (n = 698), per dose increment
  OR: 0.921
LDL [2]
  Success of dose adjustment (reaching LDL goal): ≤ 50%
LDL [3]; Dose 20 mg
  Average LDL reduction: 29%
LDL [3]; Dose 40 mg
  Average LDL reduction: 31%
LDL [3]; Dose 80 mg
  Average LDL reduction: 40-48%
LDL [4]; Lovastatin 10 mg model, Overall
  Proportion of patients achieving goal: 36.8%
LDL [4]; Lovastatin 10 mg model, predicted probability 0-19%
  Proportion of patients achieving goal: 10.9%
LDL [4]; Lovastatin 10 mg model, predicted probability 20-39%
  Proportion of patients achieving goal: 31.3%
LDL [4]; Lovastatin 10 mg model, predicted probability 40-59%
  Proportion of patients achieving goal: 46.8%
LDL [4]; Lovastatin 10 mg model, predicted probability 60-79%
  Proportion of patients achieving goal: 73.3%
LDL [4]; Lovastatin 20 mg [A] model, Overall
  Proportion of patients achieving goal: 49.2%
LDL [4]; Lovastatin 20 mg [A] model, predicted probability 0-19%
  Proportion of patients achieving goal: 15.0%
LDL [4]; Lovastatin 20 mg [A] model, predicted probability 20-39%
  Proportion of patients achieving goal: 25.8%
LDL [4]; Lovastatin 20 mg [A] model, predicted probability 40-59%
  Proportion of patients achieving goal: 55.1%
LDL [4]; Lovastatin 20 mg [A] model, predicted probability 60-79%
  Proportion of patients achieving goal: 73.0%
LDL [4]; Lovastatin 20 mg [A] model, predicted probability 80-100%
  Proportion of patients achieving goal: 71.4%
LDL [4]; Lovastatin 20 mg [B] model, Overall
  Proportion of patients achieving goal: 49.3%
LDL [4]; Lovastatin 20 mg [B] model, predicted probability 0-19%
  Proportion of patients achieving goal: 12.7%
LDL [4]; Lovastatin 20 mg [B] model, predicted probability 20-39%
  Proportion of patients achieving goal: 33.0%
LDL [4]; Lovastatin 20 mg [B] model, predicted probability 40-59%
  Proportion of patients achieving goal: 53.6%
LDL [4]; Lovastatin 20 mg [B] model, predicted probability 60-79%
  Proportion of patients achieving goal: 75.0%
LDL [4]; Lovastatin 20 mg [B] model, predicted probability 80-100%
  Proportion of patients achieving goal: 64.7%
LDL [4]; Lovastatin 40 mg model, Overall
  Proportion of patients achieving goal: 49.3%
LDL [4]; Lovastatin 40 mg model, predicted probability 0-19%
  Proportion of patients achieving goal: 11.1%
LDL [4]; Lovastatin 40 mg model, predicted probability 20-39%
  Proportion of patients achieving goal: 31.2%
LDL [4]; Lovastatin 40 mg model, predicted probability 40-59%
  Proportion of patients achieving goal: 50.7%
LDL [4]; Lovastatin 40 mg model, predicted probability 60-79%
  Proportion of patients achieving goal: 70.7%
LDL [4]; Lovastatin 40 mg model, predicted probability 80-100%
  Proportion of patients achieving goal: 100%
LDL [4]; Model 1, lovastatin 10 mg, Overall
  Proportion of patients achieving goal: 36.8%
LDL [4]; Model 1, lovastatin 10 mg, predicted probability 0-19%
  Proportion of patients achieving goal: 10.9%
LDL [4]; Model 1, lovastatin 10 mg, predicted probability 20-39%
  Proportion of patients achieving goal: 31.3%
LDL [4]; Model 1, lovastatin 10 mg, predicted probability 40-59%
  Proportion of patients achieving goal: 46.8%
LDL [4]; Model 1, lovastatin 10 mg, predicted probability 60-79%
  Proportion of patients achieving goal: 73.3%
LDL [4]; Model 1, lovastatin 20 mg, Overall
  Proportion of patients achieving goal: 47.4%
LDL [4]; Model 1, lovastatin 20 mg, predicted probability 0-19%
  Proportion of patients achieving goal: 8.5%
LDL [4]; Model 1, lovastatin 20 mg, predicted probability 20-39%
  Proportion of patients achieving goal: 29.0%
LDL [4]; Model 1, lovastatin 20 mg, predicted probability 40-59%
  Proportion of patients achieving goal: 54.4%
LDL [4]; Model 1, lovastatin 20 mg, predicted probability 60-79%
  Proportion of patients achieving goal: 74.6%
LDL [4]; Model 1, lovastatin 40 mg, Overall
  Proportion of patients achieving goal: 49.3%
LDL [4]; Model 1, lovastatin 40 mg, predicted probability 0-19%
  Proportion of patients achieving goal: 11.1%
LDL [4]; Model 1, lovastatin 40 mg, predicted probability 20-39%
  Proportion of patients achieving goal: 33.3%
LDL [4]; Model 1, lovastatin 40 mg, predicted probability 40-59%
  Proportion of patients achieving goal: 49.1%
LDL [4]; Model 1, lovastatin 40 mg, predicted probability 60-79%
  Proportion of patients achieving goal: 73.2%
LDL [4]; this study, all doses
  Chance of success (reaching goal) of any dose choice: ≤ 50%
